Measured values: ChEMBL document CHEMBL1201862, “PubChem BioAssay data set” (2004)
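Results reflect a 48-hour exposure of cells in 96-well plates to compound at five concentrations. Abbreviation: GI50, concentration required for 50% inhibition of growth.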 Active and inactive are the calls of the source. Rule as the data show it: active = GI50 up to about 1.1 µM and inactive = higher.

Columns and labels:
Assay in all cases: DTP human tumour cell line panel, 48 h
[1] = system: BT-549
[2] = system: DU-145
[3] = system: Hs-578T
[4] = system: MDA-MB-435
[5] = system: PC-3
[6] = system: MDA-N
[7] = system: LXFL 529
[8] = system: 786-0
[9] = system: RXF 631

Measured: GI50

CN(CCO)Cc1ncccc1O
inactive: [1] > 100 µM | [2] > 100 µM | [3] > 100 µM | [4] > 100 µM | [5] > 100 µM

CON(C)C(C#N)=C(C#N)C#N
inactive: [2] > 10 µM | [3] > 10 µM | [4] > 10 µM | [6] > 10 µM | [5] > 10 µM

O=C1c2ccccc2N(O)C1(c1ccccc1)C1CCCC=C1N1CCOCC1 (stereo not drawn)
inactive: [7] 68.5 µM

C#CC(C)(C)OCCCCOc1cc(O)c2c(=O)c3ccccc3n(C)c2c1
inactive: [8] > 100 µM | [7] > 100 µM

C=CCCN1CCc2c([nH]c3ccccc23)C1C(=O)O (stereo not drawn)
inactive: [7] > 100 µM | [9] > 100 µM

O=c1nc(NC(c2ccccc2)(c2ccccc2)c2ccccc2)ccn1CCCl
inactive: [8] 18.1 µM | [7] 13.5 µM | [9] 27.3 µM

O=[N+]([O-])c1ccc(N2N=C(c3ccc(NCc4nc5ccccc5[nH]4)cc3)CC2c2ccco2)cc1 (stereo not drawn)
inactive: [8] 44 µM | [7] 11.1 µM

CC(=O)NNc1nc(C)c(C(=O)NNC(=O)C(=O)Nc2ccc([N+](=O)[O-])cc2C#N)s1
inactive: [8] 67.3 µM | [7] 44.3 µM

CC(=O)Nc1ccc(C(=O)NN2C(=O)C(Cl)/C2=C/c2ccco2)cc1 (stereo not drawn)
inactive: [7] > 100 µM

CC(=O)OCc1c(C)c2ccccc2n1C(C)=O
inactive: [8] > 100 µM | [9] 25.2 µM

COc1ccc(CCn2cncn2)cc1
inactive: [7] > 100 µM | [9] > 100 µM

CC1CC/C(=C\c2ccc(N(C)C)cc2)C2=C1C(c1ccc(N(C)C)cc1)NC(=S)N2 (stereo not drawn)
inactive: [8] > 100 µM | [1] > 100 µM | [2] > 100 µM | [3] > 100 µM | [4] > 100 µM | [6] > 100 µM | [5] 40.3 µM

O=C(/C=C/c1ccc(OCc2ccccc2)cc1)NCc1ccc(C(=O)NCc2ccccc2)cc1
inactive: [8] > 100 µM | [1] > 100 µM | [2] > 100 µM | [3] > 100 µM | [4] > 100 µM | [6] > 100 µM | [5] > 100 µM

CN1C(=O)CCC1c1ccc2c(c1)oc(=O)n2C (stereo not drawn)
inactive: [8] > 100 µM | [7] > 100 µM

CN(C)C(=O)NCCN1CCCCCc2ccccc21
inactive: [2] > 100 µM | [3] > 100 µM | [4] 53 µM | [6] > 100 µM | [5] > 100 µM

CCN(CC)c1cccc2c1/C(=N/O)CCCC2
inactive: [8] > 100 µM | [7] > 100 µM

CC[C@H](O)[C@H](C)C=C1SCCCS1
inactive: [8] > 100 µM | [1] > 100 µM | [2] > 100 µM | [3] > 100 µM | [4] > 100 µM | [6] > 100 µM | [5] > 100 µM

CCOC(=O)c1cc(Br)c(-c2cc(C)no2)[nH]1
inactive: [8] 43.7 µM | [1] 31.2 µM | [2] 20.5 µM | [4] 14.3 µM | [6] 23.2 µM | [5] 28.4 µM
